{"source": "patent US20110288105A1", "about": "“ELTOPRAZINE FOR THE TREATMENT OF L-DOPA-INDUCED DYSKINESIA” (Merz Pharma GmbH & Co. KGaA, priority 2008, published 2011)", "key": {"[1]": {"tested_on": "rodent models of depression", "details": "in vivo; cited from earlier work"}, "[2]": {"molecular_target": "T1, human serotonin HT1a receptor (Homo sapiens, UniProt P08908)", "T1 construct": "expressed in transfected cells; host or cells: CHO-K1", "T1 sequence (P08908 1-422)": "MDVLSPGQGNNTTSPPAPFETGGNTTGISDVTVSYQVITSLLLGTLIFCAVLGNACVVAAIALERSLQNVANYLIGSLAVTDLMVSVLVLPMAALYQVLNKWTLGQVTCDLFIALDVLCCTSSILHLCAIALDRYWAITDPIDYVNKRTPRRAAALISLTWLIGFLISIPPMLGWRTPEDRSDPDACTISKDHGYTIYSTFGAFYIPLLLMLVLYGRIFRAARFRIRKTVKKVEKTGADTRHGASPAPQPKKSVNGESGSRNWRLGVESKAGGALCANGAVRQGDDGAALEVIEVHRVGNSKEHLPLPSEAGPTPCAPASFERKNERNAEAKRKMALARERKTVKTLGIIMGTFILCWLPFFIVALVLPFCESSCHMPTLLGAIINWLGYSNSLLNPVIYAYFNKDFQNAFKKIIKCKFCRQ", "test": "GTPγS assay, agonist testing, 5-HT1a", "format": "biochemical", "details": "human recombinant cell lines; FIG. 1; relevant plasma concentration (<0.5 μM)", "method": "(§1) Eltoprazine was tested for activity on the human serotonin HT1a and 5-HT1b receptors using a GTPγS assay. Recombinant membranes obtained from CHO-K1 cells expressing either the 5-HT1a or 5-HT1b receptors were mixed with GDP (volume:volume) and incubated for at least 15 min on ice. In parallel, GTPγ[35S] was mixed with the beads (volume:volume) just before starting the reaction. The following reagents were successively added in the wells of an Optiplate (Perkin Elmer): 50 μl of test compound, 20 μl of the membranes:GDP mix, 10 μl of assay buffer (for agonist testing) and 20 μl of the GTPγ[35S]:beads mix. The plates were covered with a top seal, shaken on an orbital shaker for 2 min, and then incubated for 1 hour at room temperature. Then the plates were centrifuged for 10 min at 2000 rpm, incubated at room temperature 1 hour and counted for 1 min/well with a PerkinElmer TopCount reader."}, "[3]": {"molecular_target": "T2, 5-HT2c non-edited (ne) recombinant receptor (Homo sapiens, UniProt P28335)", "T2 construct": "expressed in transfected cells", "T2 sequence (P28335 33-458)": "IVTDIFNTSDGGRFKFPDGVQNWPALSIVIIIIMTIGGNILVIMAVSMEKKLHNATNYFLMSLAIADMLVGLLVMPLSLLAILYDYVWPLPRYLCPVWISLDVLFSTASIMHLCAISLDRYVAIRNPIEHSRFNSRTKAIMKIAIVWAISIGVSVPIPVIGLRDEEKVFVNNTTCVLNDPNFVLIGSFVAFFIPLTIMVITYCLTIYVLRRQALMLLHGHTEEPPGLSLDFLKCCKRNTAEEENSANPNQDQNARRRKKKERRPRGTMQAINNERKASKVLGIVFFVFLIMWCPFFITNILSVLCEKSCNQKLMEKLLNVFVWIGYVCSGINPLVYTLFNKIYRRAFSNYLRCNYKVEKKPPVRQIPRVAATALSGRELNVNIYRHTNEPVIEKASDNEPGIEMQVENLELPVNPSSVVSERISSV", "test": "Aequorin cell line functional assay, 5-HT2c non-edited", "format": "cell-based", "details": "human recombinant cell lines; FIG. 1; relevant plasma concentration (<0.5 μM)", "method": "(§2) Aequorin cell lines expressing the 5-HT2a, 5-HT2b and 5-HT2c non-edited (ne) recombinant receptors were used to evaluate the functional activity of eltoprazine. Aequorin cells grown 18 hours prior to the test in media without antibiotics were detached by gentle flushing with PBS-EDTA (5 mM EDTA), recovered by centrifugation and resuspended in “assay buffer” (DMEM/HAM's F12 with HEPES+0.1% BSA protease free). Cells were incubated at room temperature for at least 4 h with Coelenterazine h (Molecular Probes). The reference agonist used were 5-HT and a-methyl-5-HT. For agonist testing, 50 μl of cell suspension were injected on 50 μl of test compound or reference agonist plated in a 96-well plate. The resulting emission of light was recorded using the Hamamatsu Functional Drug Screening System 6000 (FDSS 6000)."}, "[4]": {"tested_on": "unilaterally 6-OHDA-lesioned rats", "test": "L-DOPA-induced dyskinesia (AIM scores) in 6-OHDA-lesioned rat model of Parkinson's disease", "format": "in vivo", "details": "eltoprazine hydrochloride 0.08, 0.3, 1.25 and 5 mg/kg s.c.; after 21 days of L-DOPA; FIG. 2", "method": "(§3) Male Sprague Dawley rats (Elevage Janvier, Le Genest Saint Isle, France) weighing between 220 and 250 g at the beginning of the study are used in these experiments. They are housed under a 12-hr light/dark cycle with free access to standard pelleted food and tap water. Animal treatment and experimental procedures are approved by local ethical committees (Regierungspräsidium Darmstadt; Germany).\n(§4) Dopamine-denervating lesions are performed on rats anaesthetized with a 5:1 mixture of ketamine and xylazine (1 ml/kg, i.p.). […] The animals' turning behaviour is recorded in an automated rotometer (TSE Rotameter System, TSE—Systems GmbH, Bad Homburg, Germany) over a 90-min period after the intraperitoneal (i.p.) injection of 2.5 mg/kg dexamphetamine sulphate dissolved in saline. […]\nIn order to evaluate a the severity of LID, AIMs are recorded every second day as described by Cenci et al. (1998). […]\nEur J Neurosci 1998 10:2694-2706. […] Each rat is scored on a severity scale from 0 to 4 based on its frequency and persistence (1=occasional; 2=frequent; 3=continuous but interrupted by sensory distraction; 4=continuous, severe and not interrupted by sensory distraction). […]"}, "human 5-HT1b receptor": {"molecular_target": "T3, human 5-HT1b receptor (Homo sapiens, UniProt P28222)", "T3 construct": "expressed in transfected cells; host or cells: CHO-K1", "T3 sequence (P28222 whole entry)": "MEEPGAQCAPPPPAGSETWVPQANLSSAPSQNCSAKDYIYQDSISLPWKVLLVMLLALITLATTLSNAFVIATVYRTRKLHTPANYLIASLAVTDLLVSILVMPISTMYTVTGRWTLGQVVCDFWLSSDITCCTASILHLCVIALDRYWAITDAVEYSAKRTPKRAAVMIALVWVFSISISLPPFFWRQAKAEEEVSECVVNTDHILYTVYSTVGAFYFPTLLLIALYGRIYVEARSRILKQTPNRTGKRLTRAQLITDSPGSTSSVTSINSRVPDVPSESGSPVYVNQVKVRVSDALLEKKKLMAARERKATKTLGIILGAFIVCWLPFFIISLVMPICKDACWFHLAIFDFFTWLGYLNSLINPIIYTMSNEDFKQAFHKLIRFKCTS", "test": "GTPγS assay, agonist testing, 5-HT1b", "format": "biochemical", "details": "human recombinant cell lines; FIG. 1; relevant plasma concentration (<0.5 μM)", "method": "as §1"}, "[5]": {"molecular_target": "T4, 5-HT2a recombinant receptor (Homo sapiens, UniProt P28223)", "T4 construct": "expressed in transfected cells", "T4 sequence (P28223 whole entry)": "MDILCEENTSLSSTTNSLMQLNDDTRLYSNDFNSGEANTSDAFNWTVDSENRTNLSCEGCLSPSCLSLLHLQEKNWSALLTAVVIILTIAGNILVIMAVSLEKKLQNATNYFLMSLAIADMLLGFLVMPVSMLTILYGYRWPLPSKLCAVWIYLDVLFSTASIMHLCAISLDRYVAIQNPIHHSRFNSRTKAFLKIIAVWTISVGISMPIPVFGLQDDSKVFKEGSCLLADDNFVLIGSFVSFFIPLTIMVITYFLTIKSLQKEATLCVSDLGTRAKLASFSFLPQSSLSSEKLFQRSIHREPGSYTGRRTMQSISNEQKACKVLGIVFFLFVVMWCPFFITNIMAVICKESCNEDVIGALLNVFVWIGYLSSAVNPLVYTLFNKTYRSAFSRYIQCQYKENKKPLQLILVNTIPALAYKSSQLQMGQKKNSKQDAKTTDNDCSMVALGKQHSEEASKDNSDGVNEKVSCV", "test": "Aequorin cell line functional assay, 5-HT2a", "format": "cell-based", "details": "human recombinant cell lines; FIG. 1; relevant plasma concentration (<0.5 μM)", "method": "as §2"}, "[6]": {"tested_on": "unilaterally 6-OHDA-lesioned rats", "test": "Turning behaviour induced by high dose of L-DOPA in 6-OHDA-lesioned rats", "format": "in vivo, rat", "details": "0.3, 1.25 and 5 mg/kg, 30 min before test, FIG. 3", "method": "as §3, §4\nIn order to evaluate the effect of eltoprazine on parkinsonian symptoms and its interaction with L-DOPA, rotational behaviour is evaluated. The numbers of ipsilateral and contralateral turns are recorded in an automated rotometer (TSE Rotameter System, TSE—Systems GmbH, Bad Homburg, Germany) over a period of 180 min. […]"}, "dopamine D2 receptor": {"molecular_target": "dopamine D2 receptor (Homo sapiens, UniProt P14416)", "sequence (P14416 whole entry, species assumed)": "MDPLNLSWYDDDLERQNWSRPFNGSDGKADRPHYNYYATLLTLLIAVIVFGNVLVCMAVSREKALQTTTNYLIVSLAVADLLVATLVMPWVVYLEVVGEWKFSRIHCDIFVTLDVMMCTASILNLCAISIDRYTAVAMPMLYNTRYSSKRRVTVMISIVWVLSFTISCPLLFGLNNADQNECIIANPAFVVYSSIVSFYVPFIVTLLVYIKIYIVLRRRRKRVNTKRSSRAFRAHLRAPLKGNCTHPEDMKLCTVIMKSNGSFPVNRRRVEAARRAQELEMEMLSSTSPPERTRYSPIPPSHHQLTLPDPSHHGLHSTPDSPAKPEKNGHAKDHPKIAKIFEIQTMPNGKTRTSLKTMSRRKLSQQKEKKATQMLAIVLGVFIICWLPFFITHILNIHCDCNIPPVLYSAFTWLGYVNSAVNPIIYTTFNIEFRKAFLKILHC", "test": "Affinity for dopamine D2 receptor", "format": "binding"}, "[7]": {"tested_on": "1-methyl-4-phenyl-1,2,3,6-tetrahydropyridine-treated primates", "details": "monkey studies; Iravani et al. 2003; cited from earlier work"}}, "note": "“Also recorded” adds a separate entry of the source."}
{"smiles": "Clc1cccc(N2CCNCC2)c1", "note": "[mCPP]", "values": [{"measurement": "effect in rodent models of depression", "setting": "[1]", "value": "positive effects"}]}
{"smiles": "COc1ccc2c(c1O[C@H]1CCNC1)CCC2", "note": "[Org 37684]", "values": [{"measurement": "effect in rodent models of depression", "setting": "[1]", "value": "positive effects"}]}
{"smiles": "c1cc2c(c(N3CCNCC3)c1)OCCO2", "note": "[eltoprazine, 1-(2,3-dihydro-1,4-benzodioxin-5-yl)piperazine]", "values": [{"measurement": "functional action on 5-HT1a receptor", "setting": "[2]", "value": "weak agonistic action"}, {"measurement": "functional action on 5-HT2c receptor", "setting": "[3]", "value": "agonist"}, {"measurement": "effect on AIM scores (L-DOPA-induced dyskinesia)", "setting": "[4]", "value": "significantly reverses, in a dose-dependent manner"}, {"measurement": "functional action on 5-HT1b receptor", "setting": "human 5-HT1b receptor", "value": "partial agonistic action"}, {"measurement": "functional action on 5-HT2a receptor", "setting": "[5]", "value": "partial agonistic action"}, {"measurement": "interference with the antiparkinsonian effect of L-DOPA (turning behaviour)", "setting": "[6]", "value": "does not interfere with the antiparkinsonian effect of L-DOPA; also recorded: does not interfere with the anti-parkinsonian effect of L-DOPA"}, {"measurement": "affinity for the dopamine D2 receptor", "setting": "dopamine D2 receptor", "value": "devoid of significant affinity"}]}
{"smiles": "CCc1cc2c(ccc3cnn(C[C@H](C)N)c32)o1", "note": "[YM348]", "values": [{"measurement": "effect in rodent models of depression", "setting": "[1]", "value": "positive effects"}]}
{"smiles": "COc1ccc2[nH]cc(C3=CCNCC3)c2c1", "note": "[Ru-24969]", "values": [{"measurement": "effect on motor symptoms / side effects", "setting": "[7]", "value": "worsening of motor symptoms and/or development of side effects"}]}
{"smiles": "C[C@H](N)Cn1ccc2cc(F)c(Cl)cc21", "note": "[Ro 60-0175]", "values": [{"measurement": "effect in rodent models of depression", "setting": "[1]", "value": "positive effects"}]}
{"smiles": "c1cc2c3c(c1)[C@H]1CCC[C@H]1N3CCNC2", "note": "[WAY-163909]", "values": [{"measurement": "effect in rodent models of depression", "setting": "[1]", "value": "positive effects"}]}
